Series [1] concerns SEM cells (human ALL cells labelled with GFP). Briefly: survival of CB17 SCID mice with SEM leukemia xenograft, oral treatment. The note with it: for survival / therapeutic activity in words: oral gavage twice weekly for two weeks, FIG. 1. Format: in vivo. The protocol:
FIG. 1 is a graph showing survival of CB17 SCID mice from Charles River Laboratories International, Inc., treated with orally-administered rose bengal disodium. Exponentially-growing SEM cells (2.5×10^6 human ALL cells labelled with GFP) were injected intravenously into each animal and the establishment of tumors was monitored. After 4 weeks to permit the growth of the tumor, mice were randomized to three groups. Group 1 (n=9 control animals) received 100 μL of PBS given orally twice a week for two weeks. Group 2 (n=8 treatment Cohort I animals) received 25 μL of rose bengal disodium present at 10% w/v in 0.9% NaCl aqueous solution that was diluted in PBS to a final volume of 100 μL and given orally twice a week for 2 weeks. Group 3 (n=8 treatment Cohort II animals) received 12.5 μL of the above 10% w/v in 0.9% NaCl aqueous solution that was diluted in PBS to a final volume of 100 μL and administered orally twice a week for 2 weeks. […] Data are presented as Kaplan-Meier estimates.
Female C17 SCID mice from Charles River
The SEM cell line was initially established from a 5 year old female with B acute lymphoblastic leukemia. It carries the MLL-AFFF1 gene fusion and heterozygous for CDKN2A and TP53.
2.5×10^6 exponentially growing SEM cells [labelled with green fluorescent protein (GFP)] were injected intravenously into each animal and the establishment of tumors was monitored. After 4 weeks to permit the growth of the tumors, mice were randomized to three groups.
These animals received 100 μL of PBS given orally twice a week for two weeks.
These animals received 25 μL of PV-10® (10% rose bengal disodium w/v in 0.9 percent in aqueous saline) diluted in PBS to a final volume of 100 μL and given orally by gavage twice a week for 2 weeks.
These animals received 12.5 μL of PV-10® (as discussed above) diluted in PBS to a final volume of 100 μL and given orally by gavage twice a week for 2 weeks.
Data are presented in FIG. 1 as Kaplan-Meier estimates.

Series [2] is described as follows: oral bioavailability, radiolabel studies with 14C-RB. Format: in vivo. The note with it: 14C-RB in aqueous solution given orally to mice. From the text:
The bioavailability of various HX compounds such as disodium rose bengal has not been well characterized. Studies commissioned by one of the assignees concluded that bioavailability of disodium rose bengal is less than (<) 1% based on radiolabel studies where ^14C-RB in aqueous solution was given orally to mice. In the stomach, with a pH value<4, an HX compound is likely to be in the lactone form.

Series [3] in a line: oral bioavailability, mass balance studies. Format: in vivo. The settings on record: aqueous solution, estimated from mass balance studies. The protocol:
Bioavailability of RB disodium administered in aqueous solution via the oral route appears to be limited based on mass balance studies conducted by the inventors, and can be estimated at 0.1-1 percent, corresponding to a daily systemic exposure of 0.2-2 mg/kg. Presuming this amount is distributed through the bloodstream, and that blood volume comprises approximately 10 percent of body weight, this equates to an estimated concentration of 2-20 μM RB in the blood.

A short description of series [4]: solubility and behaviour of HX compound forms in aqueous media. Format: physicochemical. The settings on record: solutions of disodium RB mixed in. From the text:
The dibasic salt forms of the HX compounds exist in solution having a pH greater than approximately 5, whereas at pH values<5 the HX compounds spontaneously convert to their lactone form. […] Thus, optimizing formulation to properly compensate for the pH value of the GI tract is perhaps the most important parameter affecting bioavailability. For example, in the stomach, where pH value<4, dissolved HX compound is rapidly converted to the insoluble lactone form.
For example, the highly acidic gastric environment (pH 1.5-2 in the fasted state; pH 3-6 in the fed state) rises rapidly to about pH 6 in the duodenum and increases along the small intestine to pH 7.4 at the terminal ileum. The pH value in the cecum drops just below pH 6 and again rises in the colon reaching pH 6.7 at the rectum [Hua, Front Pharmacol 11:Article 524 (April 2020)].

Series [5] concerns several cancer cell lines. The note with it: cited from earlier work.
For series [6] the following is noted: cited from earlier work.
The conditions of series [7]: 112 mg bolus, 60 kg adult human, 1.9 mg/kg; cited from earlier work.
For series [8], the system named is pediatric solid tumors (neuroblastoma and neuroepithelioma). The note with it: in vitro contact for 96 hours; cited from earlier work.
The subject of series [9] is Apc^Min colorectal tumor model. Format: in vivo, mice. The protocol:
26, 2021. […] Presuming a daily drinking water consumption rate of approximately 2 mL/10 g body weight, this corresponds to consumption of approximately 2 mg RB/10 g (200 mg/kg).
Those Apc^min mice are understood to have thereby consumed approximately 8 mg/10 g/day=800 mg/kg/day. That amount is consistent with toxicology data showing such a dose is tolerated.

A short description of series [10]: tolerated dose in clinical studies of PV-10. Format: in vivo, human. The procedure:
The classic intravenous (IV) diagnostic assay for liver function using RB was conducted giving 100 mg RB as a single IV dose. In clinical studies of PV-10® aqueous RB disodium solution, RB has been tolerated at 1500 mg delivered IV. The standard adult blood volume is approximately 5 L. Thus, to achieve 100 mg/L in the blood, an adult patient would need to receive approximately 500 mg of RB IV to achieve the IC50 value in the bloodstream.
In clinical studies of PV-10® aqueous RB disodium solution, RB has been tolerated at 1500 mg delivered IL.

The conditions of series [11]: clearance from circulation; cited from earlier work.
The conditions of series [12]: fed ad libitum continuously for 2 years, C57BL6N mice; cited from earlier work.
The subject of series [13] is solid tumors (e.g., melanoma, hepatocellular carcinoma, breast carcinoma). The settings on record: intralesional, intratumoral RB about 25-50 mg/g tumor tissue (25-50 mM); cited from earlier work.
For series [14] the following is noted: human, in vivo; cited from earlier work.
The conditions of series [15]: nude mice; cited from earlier work.
[16] abbreviates: symptomatic mice, 1 mg/mL ad libitum in drinking water.

Where two headings read alike, the source gives them in different places. Where a SMILES comes first, the peptide text is derived from it. [ ]: non-standard residue; d: D form. The star is where a group is joined. Dolaproine = CO[C@@H]([C@@H]1CCCN1)[C@@H](C)C(=O)O; Dil = CC[C@H](C)[C@H](NC)[C@@H](CC(=O)O)OC; X1 = C[C@@H](N*)[C@@H](O)c1ccccc1; NMeV = CN[C@H](C(=O)O)C(C)C

Take `O=C([O-])c1c(Cl)c(Cl)c(Cl)c(Cl)c1-c1c2cc(I)c(=O)c(I)c-2oc2c(I)c([O-])c(I)cc12.[Na+].[Na+]` [RB disodium, 4,5,6,7-tetrachloro-2′,4′,5′,7′-tetraiodofluorescein disodium]: the “survival of mice treated with lesser amounts” value in series [1] (lesser amounts of HX compound (Cohort II, 12.5 μL PV-10), compared with the 62.5% group) was “much poorer survival rates”. Also, the “treated leukemic mice that survived for 120 days” value in [1] (oral gavage twice a week for 2 weeks, higher-dose group (Cohort I, 25 μL PV-10)) is listed as 62.5%. Further, the “survival / therapeutic activity in words” value in series [1] (two treatment groups) was “dose-dependent survival”. Besides, in series [2], the bioavailability is on record as under 1%. For the same molecule, in [3], the “bioavailability via the oral route” value is 0.1-1%. In addition, the “behaviour in water solution having the pH value of the human stomach” value in series [4] is “rapid clouding of the admixture and clumping”.
Consider `CC[C@H](C)[C@@H]([C@@H](CC(=O)N1CCC[C@H]1[C@H](OC)[C@@H](C)C(=O)N[C@H](C)[C@@H](O)c1ccccc1)OC)N(C)C(=O)[C@@H](NC(=O)[C@@H](NC)C(C)C)C(C)C` [monomethyl auristatin] (H-[NMeV]V[Dil][Dolaproine]-X1), for which, in series [5], the IC50 was under 1 nM.
Regarding `O=C1OC2(c3cc(I)c(O)c(I)c3Oc3c2cc(I)c(O)c3I)c2c(Cl)c(Cl)c(Cl)c(Cl)c21` [RB, 4,5,6,7-tetrachloro-2′,4′,5′,7′-tetraiodofluorescein], the “estimated RB in the blood” value in [1] (assuming 1% bioavailability, intestinal transit 6 hours, blood volume 10 percent of body weight, two treatment groups) is 125 to 250 µM. Further, the “survival / therapeutic activity in words” value in series [1] (two treatment groups) is given as “therapeutic activity was observed”. For the same molecule, the pKa value is on record as 2.52 in [6] and 1.81 in series [6] (second value). In series [7], the “morbidity after IV bolus” value is “not reported to yield morbidity”. The concentrations demonstrating cytotoxicity in series [8] was 50 to 100 µM. Moreover, the “effect on onset of disease” value in series [9] (4 mg/mL ad libitum in drinking water (about 800 mg/kg/day)) was “arrested onset of disease”. In addition, the “estimated concentration of RB in the blood” value in series [9] (mouse, in vivo) was 2 to 20 µM. Besides, the “increase in mean survival relative to untreated mice” value in series [9] (setting [16]) is about 38%. Besides, the mean survival in series [9] (setting [16]) was 12.3±0.5 weeks. For the same molecule, the dose tolerated in [10] (delivered IL) and in [10] (delivered IV) was 1500 mg throughout. In addition, in series [11], the “circulatory half-time (t1/2)” value was “about 30 minutes”. In series [12], the dose well tolerated is 970 mg/kg/day. Besides, the “time until acute tumor cytotoxicity is evident” value in series [13] is at most 30 min.
“ipilimumab: anti-CTLA-4 monoclonal antibody, immune checkpoint inhibitor”: in [14], the “terminal t1/2” value is on record as 15.4 days.
Consider Calicheamicin, for which, in series [15], the LD50 was 0.32 mg/kg.

For orientation: bioavailability means dose-corrected exposure relative to a reference, in per cent. In general, IC50 refers to the concentration that gives 50% inhibition. What is called LD50 is the dose expected to kill half of the subjects tested.

Source of the values: US12064507B2, “Composition and method for oral treatment of leukemia” (Provectus Pharmatech, Inc., priority 2019, dated 2024).
